According to patent publication US8637246B2, “BRAF mutations conferring resistance to BRAF inhibitors” (Dana-Farber Cancer Institute, Inc., priority 2010, dated 2014):

Key:
BRAF-V600E-T521K = BRAF-V600E-T521K (Homo sapiens, UniProt P15056, T521K/V600E); assay: Western blot of p-MEK1/2 and p-ERK1/2 in transfected 293T cells (BRAF-V600E-T521K); format: cell-based; settings: 293T cells transfected with BRAF-V600E-T521K; 0, 0.08, 0.4, 2, 5 and 10 μM for 16 hours; immunoblot (FIG. 8)
Description: (§1) 293T cells were transfected with 6 μg of pWZL(BLAST)-BRAF for each putative resistance allele and subsequently treated with a range of concentrations of the BRAF(V600E) inhibitor PLX4720 (0, 0.08, 0.4, 2, 5 and 10 μM) for 16 hours. Immunoblot studies were performed using standard procedures. Briefly, the treated cells were lysed with TNN buffer containing protease inhibitor (Roche), NaF and NaVO3 (1 mM each). Lysates were quantified (Bradford assay), denatured (95° C.), and resolved by SDS gel electrophoresis. Proteins was transferred to nitrocellulose membranes and probed with primary antibodies recognizing BRAF (Santa Cruz; 1:10,000 dilution), p-ERK1/2, p-MEK1/2 (Ser-217/221), and α-tubulin (Cell Signaling Technology; 1:1,000 dilution). After incubation with the appropriate secondary antibody (anti-rabbit or anti-mouse IgG, HRP-linked; 1:1,000 dilution) (Cell Signaling Technology), proteins were detected using chemiluminescence (Pierce).

BRAF V600E-P686Q = BRAF V600E-P686Q (Homo sapiens, UniProt P15056, P686Q/V600E); assay: Western blot of p-MEK1/2 and p-ERK1/2 in transfected 293T cells (BRAF V600E-P686Q); format: cell-based; settings: 293T cells transfected with BRAF V600E-P686Q; 0, 0.08, 0.4, 2, 5 and 10 μM for 16 hours; immunoblot (FIG. 8)
Chain of BRAF V600E-P686Q (P15056 whole entry V600E/P686Q): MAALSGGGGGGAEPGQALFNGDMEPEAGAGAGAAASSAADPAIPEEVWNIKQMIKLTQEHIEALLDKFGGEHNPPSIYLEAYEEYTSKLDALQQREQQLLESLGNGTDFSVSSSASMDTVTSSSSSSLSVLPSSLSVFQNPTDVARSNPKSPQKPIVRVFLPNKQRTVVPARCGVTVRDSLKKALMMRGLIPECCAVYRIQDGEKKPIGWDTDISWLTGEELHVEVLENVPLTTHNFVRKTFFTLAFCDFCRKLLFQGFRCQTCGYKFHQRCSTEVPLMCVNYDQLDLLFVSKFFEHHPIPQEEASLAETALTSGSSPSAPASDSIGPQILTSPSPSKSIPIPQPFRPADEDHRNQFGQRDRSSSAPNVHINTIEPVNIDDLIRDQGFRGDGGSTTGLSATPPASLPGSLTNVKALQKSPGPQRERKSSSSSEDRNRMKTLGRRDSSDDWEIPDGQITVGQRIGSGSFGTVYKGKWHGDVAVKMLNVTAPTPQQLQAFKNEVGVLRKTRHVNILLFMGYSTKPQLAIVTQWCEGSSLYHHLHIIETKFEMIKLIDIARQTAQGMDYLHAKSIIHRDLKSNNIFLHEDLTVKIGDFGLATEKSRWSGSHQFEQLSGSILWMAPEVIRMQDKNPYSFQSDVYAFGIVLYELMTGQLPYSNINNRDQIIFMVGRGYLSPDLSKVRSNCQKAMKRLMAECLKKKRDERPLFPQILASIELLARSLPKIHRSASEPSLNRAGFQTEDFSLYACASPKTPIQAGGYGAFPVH
Description: as §1

[1] = tested on: A375 cells expressing a wild-type BRAF polypeptide
[2] = tested on: A375 cells expressing a mutant BRAF polypeptide; settings: A375 cells expressing a mutant BRAF polypeptide with one or more listed resistance mutations (A29V ... C748F)

Chain of BRAF-V600E-T521K (P15056 whole entry T521K/V600E): as the sequence (P15056 whole entry V600E/P686Q) above, with T521K, Q686P counted along it

For `CCCS(=O)(=O)Nc1ccc(F)c(C(=O)c2c[nH]c3ncc(Cl)cc23)c1F` [PLX4720], the “increase in phosphorylated MEK1/2 and ERK1/2 in the presence of increasing concentrations of inhibitor” value (BRAF-V600E-T521K) was “sustained” and the “increase in phosphorylated MEK1/2 and ERK1/2 in the presence of increasing concentrations of inhibitor” value (BRAF V600E-P686Q) was “sustained”.

In the case of `Cn1c(Nc2ccc(C(F)(F)F)cc2)nc2cc(Oc3ccnc(-c4ncc(C(F)(F)F)[nH]4)c3)ccc21` [RAF-265], the “sensitivity of cells to the RAF inhibitor” value [1] was “sensitive” and the “sensitivity of cells to the RAF inhibitor” value [2] was “resistant”.
